Patent US20070189997A1, “Skin-whitening agent containing polyphenol compound” (Nichirei Foods Inc., priority 2004, published 2007)
pIC50: −log10 of the molar value. Values joined by “and” are separate entries in the source; they are usually repeats but may differ in a detail not shown here. Equal entries are not always repeated.

Experiments:
tyrosinase [1] = experiment: Tyrosinase activity inhibition, C18-adsorbed fraction and ascorbic acid alone and combined (Example 12, absorbance at 450 nm); type: biochemical, mushroom
Description: A sample (or a combination of two types of samples) was dissolved in DMSO and diluted with DMSO at adequate concentrations.
A tyrosinase solution (70 μl, 10 U/70 μl, Calzyme Laboratories, Inc.), 70 μl of 1/15M phosphate buffer (Wako Pure Chemical Industries, Ltd.), and 4 μl each of the samples dissolved in DMSO at various concentrations were introduced into separate wells of a 96-well plate. DMSO was added to a control sample instead of a sample solution.
After the pre-incubation was carried out at 25° C. for 10 minutes, 70 μl of 10 mM L-DOPA (Wako Pure Chemical Industries, Ltd.) was added, the mixture was mixed immediately thereafter, and the absorbance at 450 nm was assayed every 20 seconds for 2 minutes. Change (slope) in the absorbance per unit time thus assayed was designated as the initial rate, and the inhibition (%) was determined by the following equation. Inhibition (%)={1−(initial ratesample/initial ratecontrol)}×100
The terms “additive effect” and “synergistic effect” are described. When tyrosinase activity inhibition (%) by the C18-adsorbed fraction alone at a concentration of A μg/ml is X (%) and tyrosinase activity inhibition (%) by ascorbic acid alone at a concentration of B μg/ml is Y (%), the case where the value Z for the tyrosinase activity inhibition (%) assayed upon the reaction of the C18-adsorbed fraction at a concentration of A μg/ml with ascorbic acid at a concentration of B μg/ml is equal to the sum of X+Y is evaluated as “C18-adsorbed fraction additively reacts with ascorbic acid.” The case where the value Z is greater than the sum of X+Y is evaluated as “C18-adsorbed fraction synergistically reacts with ascorbic acid.” When the value Z is smaller than the sum of X+Y, the C18-adsorbed fraction and ascorbic acid attenuate their effects each other.

mushroom tyrosinase [2] = experiment: Inhibition of tyrosinase activity (L-Dopa, absorbance at 475 nm), procedure of Example 3; type: biochemical; conditions: for effects of inhibiting tyrosinase activity (FIG. 1, 3, 4): 25° C., various concentrations in DMSO; for effects for inhibiting tyrosinase activity relative to kojic acid: compared with kojic acid, Table 2; for pIC50: procedure of Example 3, read-out: Concentration at which 50% of tyrosinase activity is inhibited
Description: 1/15M phosphate buffer (70 μl, pH 6.8), 2 μl each of sample solutions of the C18-adsorbed fraction obtained in Example 1 dissolved in dimethyl sulfoxide (DMSO) at various concentrations, and 70 μl (10 U) of mushroom tyrosinase (Calzyme Laboratories) dissolved in the buffer were mixed, and the mixture was incubated at 25° C. for 10 minutes. Thereafter, 70 μl of 10 mM L-Dopa was added to initiate the reaction, the absorbance at 475 nm was assayed every 20 seconds for 2 minutes, and the inhibition (%) of tyrosinase activity was calculated using the following equation. […] Further, PVPP resin was added to the supernatant to a concentration of 1%, and the resultant was also agitated for 1.5 hours, followed by centrifugation to obtain a supernatant. […] The sample was dissolved in 1/15M phosphate buffer (pH 6.8) instead of DMSO. The polyphenol content was assayed in the same manner as in Example 1.

mushroom tyrosinase [3] = experiment: Test of anthocyanidin compounds for inhibiting tyrosinase activity (Example 11, IC50); type: biochemical; conditions: for pIC50: 25° C., L-Dopa, 475 nm
Description: The sample compounds were dissolved in DMSO and diluted with DMSO at adequate concentrations.
1/15M phosphate buffer (70 μl), 70 μl of a solution containing mushroom tyrosinase adjusted at 1 U/μl with a buffer, and 2 μl each of sample solutions dissolved in DMSO at various concentrations were introduced into separate wells of a 96-well plate, and these substances were thoroughly mixed, followed by incubation at 25° C. for 10 minutes.
A solution of 10 mM L-Dopa (70 μl) was added and mixed in immediately thereafter. […] The reaction was carried out at 25° C.
Change (slope) in the absorbance per unit time was designated as the initial rate, and the inhibition of tyrosinase activity (%) was determined by the following equation. Inhibition (%)={1−(initial ratesample/initial ratecontrol)}×100

tyrosinase [4] = conditions: cited from earlier work
[5] = in vivo; cited from earlier work

O=C1O[C@H]([C@@H](O)CO)C(O)=C1O [Ascorbic acid, ascorbic acid]
Mean of tyrosinase activity inhibition (n = 3) (tyrosinase [1]; ascorbic acid alone 2.4 μg/ml): −1.3%
Mean of tyrosinase activity inhibition (n = 3) (tyrosinase [1]; ascorbic acid alone 4.7 μg/ml): 1.0% and 1.0 ± 3.4%
Mean of tyrosinase activity inhibition (n = 3) (tyrosinase [1]; ascorbic acid alone 9.4 μg/ml): 9.0% and 9.0 ± 2.9%
Mean of tyrosinase activity inhibition (n = 3) (tyrosinase [1]; ascorbic acid alone 47.2 μg/ml): 95.0%
tyrosinase inhibitory activity (tyrosinase [1]; ascorbic acid at a concentration up to 9.4 μg/ml): inhibitory activity was not observed very much
tyrosinase inhibitory activity (tyrosinase [1]; ascorbic acid at a final concentration of 47.2 μg/ml): almost completely inhibited
Inhibition of tyrosinase activity (%) (mushroom tyrosinase [2]; Ascorbic acid 33.3 μM): 5.49%

C[C@@H]1O[C@@H](O[C@H]2C(=O)c3c(O)cc(O)cc3O[C@@H]2c2ccc(O)c(O)c2)[C@H](O)[C@H](O)[C@H]1O [Astilbin, dehydroquercitrin]
pIC50 (mushroom tyrosinase [3]): < 2.70

C[C@@H]1O[C@@H](Oc2cc3c(O)cc(O)cc3[o+]c2-c2ccc(O)c(O)c2)[C@H](O)[C@H](O)[C@H]1O.[Cl-] [C3R, cyanidin-3-rhamnoside]
pIC50 (mushroom tyrosinase [3]): 4.48
effects of inhibiting tyrosinase activity (FIG. 1, 3, 4) (mushroom tyrosinase [2]): found to have effects of inhibiting tyrosinase activity
effects for inhibiting tyrosinase activity relative to kojic acid (mushroom tyrosinase [2]): equivalent to those of kojic acid
pIC50 (mushroom tyrosinase [2]): 4.48

Oc1cc(O)c2cc(O)c(-c3ccc(O)c(O)c3)[o+]c2c1.[Cl-] [Cyanidin chloride]
effects of inhibiting tyrosinase activity (mushroom tyrosinase [3]): found to have effects of inhibiting tyrosinase activity
pIC50 (mushroom tyrosinase [3]): 4.96
effects of inhibiting tyrosinase activity (Non-Patent Document 1) (tyrosinase [4]): neither delphinidin, cyanidin, and malvidin have effects of inhibiting tyrosinase activity

OC[C@H]1O[C@@H](Oc2cc3c(O)cc(O)cc3[o+]c2-c2ccc(O)c(O)c2)[C@H](O)[C@@H](O)[C@@H]1O [Cyanidin-3-glucoside, reference compound]
pIC50 (mushroom tyrosinase [3]): 4.08

Oc1cc(O)c2cc(O)c(-c3cc(O)c(O)c(O)c3)[o+]c2c1 [Delphinidin chloride]
effects of inhibiting tyrosinase activity (mushroom tyrosinase [3]): found to have effects of inhibiting tyrosinase activity
pIC50 (mushroom tyrosinase [3]): 4.79
effects of inhibiting tyrosinase activity (Non-Patent Document 1) (tyrosinase [4]): neither delphinidin, cyanidin, and malvidin have effects of inhibiting tyrosinase activity

O=c1cc(CO)occ1O [Kojic acid]
potential cause of liver cancer in animal tests [5]: found to be a potential cause of liver cancer

COc1cc(-c2[o+]c3cc(O)cc(O)c3cc2O)cc(OC)c1O [Malvidin chloride]
effects of inhibiting tyrosinase activity (mushroom tyrosinase [3]): particularly potent
pIC50 (mushroom tyrosinase [3]): 6.40
effects of inhibiting tyrosinase activity (Non-Patent Document 1) (tyrosinase [4]): neither delphinidin, cyanidin, and malvidin have effects of inhibiting tyrosinase activity

CC1O[C@@H](Oc2cc3c(O)cc(O)cc3[o+]c2-c2ccc(O)cc2)[C@@H](O)C(O)[C@H]1O (some centres unmarked) [P3R, pelargonidin-3-rhamnoside]
pIC50 (mushroom tyrosinase [3]): 5.24
effects of inhibiting tyrosinase activity (FIG. 1, 3, 4) (mushroom tyrosinase [2]): found to have effects of inhibiting tyrosinase activity
effects for inhibiting tyrosinase activity relative to kojic acid (mushroom tyrosinase [2]): about 6 times
pIC50 (mushroom tyrosinase [2]): 5.24

Oc1ccc(-c2[o+]c3cc(O)cc(O)c3cc2O)cc1 [Pelargonidin chloride]
effects of inhibiting tyrosinase activity (mushroom tyrosinase [3]): found to have effects of inhibiting tyrosinase activity
pIC50 (mushroom tyrosinase [3]): 4.70
